Test results from ChEMBL document CHEMBL4270569, “Crystal structure of the Eg5 - K858 complex and implications for structure-based design of thiadiazole-containing inhibitors” (Eur J Med Chem, 2018).

Target: T1, Kinesin-like protein KIF11 (Homo sapiens, UniProt P52732)
T1 sequence (P52732 whole entry): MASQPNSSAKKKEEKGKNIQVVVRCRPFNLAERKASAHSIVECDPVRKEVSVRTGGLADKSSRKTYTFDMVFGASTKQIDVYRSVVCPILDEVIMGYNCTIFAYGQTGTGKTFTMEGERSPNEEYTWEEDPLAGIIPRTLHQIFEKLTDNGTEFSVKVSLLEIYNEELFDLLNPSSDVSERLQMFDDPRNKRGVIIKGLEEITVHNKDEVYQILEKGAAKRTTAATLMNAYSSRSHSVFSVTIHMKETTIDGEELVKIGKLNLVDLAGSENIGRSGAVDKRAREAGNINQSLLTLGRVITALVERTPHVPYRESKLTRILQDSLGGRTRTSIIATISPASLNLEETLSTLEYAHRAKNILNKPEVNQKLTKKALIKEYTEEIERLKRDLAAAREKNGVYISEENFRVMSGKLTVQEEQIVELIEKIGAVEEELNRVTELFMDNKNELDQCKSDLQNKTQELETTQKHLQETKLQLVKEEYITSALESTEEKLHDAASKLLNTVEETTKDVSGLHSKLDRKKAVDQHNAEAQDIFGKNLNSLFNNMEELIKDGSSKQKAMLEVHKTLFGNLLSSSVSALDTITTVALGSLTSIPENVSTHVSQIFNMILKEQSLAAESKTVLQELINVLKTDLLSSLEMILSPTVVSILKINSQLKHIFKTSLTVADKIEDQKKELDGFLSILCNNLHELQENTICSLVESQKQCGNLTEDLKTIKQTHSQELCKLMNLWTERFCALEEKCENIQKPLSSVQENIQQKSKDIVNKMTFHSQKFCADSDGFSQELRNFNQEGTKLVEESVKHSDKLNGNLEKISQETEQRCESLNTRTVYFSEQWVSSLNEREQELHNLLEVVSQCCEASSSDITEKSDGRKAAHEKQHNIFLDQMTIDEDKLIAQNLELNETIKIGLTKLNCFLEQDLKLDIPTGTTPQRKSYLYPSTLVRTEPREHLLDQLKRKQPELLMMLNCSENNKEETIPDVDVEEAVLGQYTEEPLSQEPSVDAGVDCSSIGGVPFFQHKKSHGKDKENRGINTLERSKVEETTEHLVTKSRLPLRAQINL
Test: Inhibition of N-terminal His6-tagged microtubule-stimulated ATPase activity of human Eg5 motor domain (1 to 368 residues) expressed in Escherichia coli BL21 (DE3) by pyruvate kinase-lactate dehydrogenase coupled assay

Point of comparison: `CC(=O)NC1=NN(C(C)=O)[C@](C)(c2ccccc2)S1`, IC50 0.493 µM. Against it:
- CC(=O)NC1=NN(C(C)=O)C(C)(c2ccccc2)S1 (centres undefined) — 1.5-fold higher, 0.74 µM

Target: T1, Kinesin-like protein KIF11
Test: Binding affinity to N-terminal His6-tagged human Eg5 motor domain (1 to 368 residues) expressed in Escherichia coli BL21 (DE3) by isothermal titration calorimetry method

Point of comparison: `CC(=O)NC1=NN(C(C)=O)[C@](C)(c2ccccc2)S1`, Kd 0.22 µM. Against it:
- CC(=O)NC1=NN(C(C)=O)C(C)(c2ccccc2)S1 (centres undefined) — 3-fold higher, 0.665 µM

Target: T1, Kinesin-like protein KIF11
Test: Inhibition of basal ATPase activity of N-terminal His6-tagged human Eg5 motor domain (1 to 368 residues) expressed in Escherichia coli BL21 (DE3) by pyruvate kinase-lactate dehydrogenase coupled assay

Point of comparison: `CC(=O)NC1=NN(C(C)=O)[C@](C)(c2ccccc2)S1`, IC50 0.58 µM. Against it:
- CC(=O)NC1=NN(C(C)=O)C(C)(c2cnccn2)S1 (centres undefined) — 81-fold higher, 46.9 µM
- CC(=O)NC1=NN(C(C)=O)C(c2ccccc2)S1 (centres undefined) — 34-fold higher, 20 µM
- CC(=O)NC1=NN(C(C)=O)C(C)(c2ccc3ccccc3c2)S1 (centres undefined) — 27-fold higher, 15.6 µM
- CC(=O)NC1=NN(C(C)=O)C(C)(c2ccc(Cl)s2)S1 (centres undefined) — 1.6-fold higher, 0.95 µM
- CC(=O)NC1=NN(C(C)=O)C(c2cc(F)ccc2F)S1 (centres undefined) — 71-fold higher, 41.1 µM
- CCC1(c2ccccc2)SC(NC(C)=O)=NN1C(C)=O (centres undefined) — 2.5-fold higher, 1.46 µM
- CC(=O)NC1=NN(C(C)=O)C(C)(c2cc(F)ccc2F)S1 (centres undefined) — within 1.5-fold, 0.84 µM
- CC(=O)NC1=NN(C(C)=O)C(C)(c2ccccn2)S1 (centres undefined) — 64-fold higher, 37.2 µM
- CC(=O)NC1=NN(C(C)=O)C(C)(c2cccnc2)S1 (centres undefined) — 15-fold higher, 8.5 µM
- CC(=O)NC1=NN(C(C)=O)C(C)(c2ccsc2)S1 (centres undefined) — 3.8-fold higher, 2.2 µM
- CC(=O)NC1=NN(C(C)=O)C(C)(c2ccc(OC(C)=O)cc2)S1 (centres undefined) — 8.8-fold higher, 5.1 µM
- CC(=O)NC1=NN(C(C)=O)C(C)(C2CCCCC2)S1 (centres undefined) — 13-fold higher, 7.5 µM
- CC(=O)NC1=NN(C(C)=O)C(C)(c2ccccc2)S1 (centres undefined) — within 1.5-fold, 0.74 µM
- CC(=O)NC1=NN(C(C)=O)C(c2cccc3ccccc23)S1 (centres undefined) — 93-fold higher, 53.9 µM
- CC(=O)NC1=NN(C(C)=O)C(C)(c2cccc3ccccc23)S1 (centres undefined) — 3.3-fold higher, 1.9 µM
- CC(=O)NC1=NN(C(C)=O)C(C)(c2ccncc2)S1 (centres undefined) — 100-fold higher, 59.9 µM
- CC(=O)NC1=NN(C(C)=O)C(C)(c2ccco2)S1 (centres undefined) — 7.4-fold higher, 4.3 µM
- CC(=O)NC1=NN(C(C)=O)C(C)(c2cccs2)S1 (centres undefined) — 2.9-fold higher, 1.7 µM

Target: T1, Kinesin-like protein KIF11
Test: Inhibition of microtubule-stimulated human Eg5 ATPase activity

Compound `CCNCCS(=O)(=O)NC[C@@]1(c2ccccc2)SC(NC(=O)C(C)(C)C)=NN1C(=O)C(C)(C)C` [LITRONESIB] has an IC50 of 0.026 µM.
